Source: patent publication US20100003342A1, “Aqueous solution and method of prolonging life of residual chlorine in aqueous solution” (priority 2006, published 2010)
Read-outs that look alike come from different tables or passages of the source.

Type: physicochemical
Conditions: KI method

Structure (SMILES)	Residual chlorine concentration (neutral pH environment)	Residual chlorine concentration (perchloric acid aqueous solution)
[Na+].[O-][Cl+][O-] [NaClO2]	several	
[O-][Cl+3]([O-])([O-])O [perchloric acid]		zero
